Source: patent publication US20240058450A1, “BCL-XL Inhibitory Compounds Having Low Cell Permeability and Antibody Drug Conjugates Including the Same” (AbbVie Inc., priority 2014, published 2024)
pEC50, pKi: −log10 of the molar value. Read-outs that look alike come from different tables or passages of the source.

What was measured:
Bcl-xL = Bcl-xL (Homo sapiens, UniProt Q07817); assay: Time Resolved-Fluorescence Resonance Energy Transfer (TR-FRET) binding assay, competition with probe F-Bak; details: for Ki: in the presence of 1% HS, read-out: Bcl-xL Binding Ki (nM, 1% HS); for pKi: without HS, read-out: Bcl-xL Binding Ki
Outline: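 Compounds compete with F-Bak probe for GST-Bcl-xL detected by Tb-anti-GST antibody. Serial dilutions from 50 μM (2× stock) incubated 2 h at room temperature, then read at 340 nm excitation, 520 and 495 nm emission. Ki by Wang's equation, tested without and with 1% human serum.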

[1] = test system: permeabilized Bcl-xL dependent Molt-4 cells; assay: Cytochrome C release in selectively (digitonin) permeabilized Molt-4 cells; format: cell-based, human; details: 4 h treatment, read-out: Molt-4 Permeabilized Cyt C Release
Description: The permeabilization of the mitochondrial outer membrane to release proteins from the intermembrane space into the cytosol is a pivotal event in the process of apoptosis. Specifically, the release of cytochrome C triggers the formation of the apoptosome which, in turn, results in caspase activation and other events that will commit the cell to undergo programmed cell death (Goldstein el al., 2005, Cell Death and Differentiation 12:453). The process of mitochondrial outer membrane permeabilization (MOMP) is controlled by the Bcl-2 family members. It is promoted by the multidomain pro-apoptotic proteins Bax and Bak which, upon activation, oligomerize on the outer mitochondrial membrane and form pores to ultimately release cytochrome C. This action is antagonized by the antiapoptotic members, including Bcl-2 and Bcl-xL. Compounds that are capable of inhibiting Bcl-2 or Bcl-xL, for example, in cells that depend upon these proteins for survival, can cause activation of Bax and or Bak, MOMP, release of cytochrome C and the mentioned downstream steps in the apoptotic process. This process of cytochrome C release can be measured in cells via Western blot of both mitochrondrial and cytosolic fractions, and can be used a proxy measurement of apoptosis in cells.
As a means of detecting the ability of a Bcl-xL inhibitor with low cell-permeability to cause release of cytochrome C, the cells can be treated with an agent that causes selective pore formation in the plasma membrane, but not the mitochondrial membrane. Specifically, the cholesterol/phospholipid ratio is much higher in the plasma membrane than the mitochondrial membrane. […] This agent forms insoluble complexes with cholesterol leading to the segregation of cholesterol from its normal phospholipid binding sites. This action, in turn, leads to the formation of holes about 40-50 Å wide in the lipid bilayer. Once the plasma membrane is permeabilized, cytosolic components able to pass over digitonin-formed holes can be washed out, including the cytochrome C that was released from mitochondria to cytosol in the apoptotic cells ((Campos, 2006, Cytometry A 69(6):515-523)).
To determine if Bcl-xL inhibitors were inducing cell death through apoptosis, cytochrome C release was measured in Bcl-xL dependent Molt-4 cells following treatment Specifically, 1×10^6 cells were treated for 4 h (37° C., 5% CO2) with the test compounds in half-log dilutions starting at 3.0 μM and ending at 0.01 μM. Cells were then processed as described in Chen et al., 2011, Mol. Cancer Ther. 10:2340-2350 (the Bcl-2/Bcl-X(L)/Bcl-w inhibitor, navitoclax, enhances the activity of chemotherapeutic agents in vitro and in vivo.).

[2] = test system: Molt-4 human acute lymphoblastic leukemia cells; assay: Molt-4 cell viability assay (CellTiter-Glo, 48 hours, 10% HS); format: cell-based; details: non-permeabilized cells
Outline: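 Cells were seeded at 12,500 per well in medium with 10% human serum and exposed to a 3-fold compound dilution series from 10 μM to 0.0005 μM. After 48 h, viable cells were quantified by CellTiter-Glo luminescence. Each concentration was run in duplicate on at least 3 occasions.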

Chain of Bcl-xL (Q07817 whole entry): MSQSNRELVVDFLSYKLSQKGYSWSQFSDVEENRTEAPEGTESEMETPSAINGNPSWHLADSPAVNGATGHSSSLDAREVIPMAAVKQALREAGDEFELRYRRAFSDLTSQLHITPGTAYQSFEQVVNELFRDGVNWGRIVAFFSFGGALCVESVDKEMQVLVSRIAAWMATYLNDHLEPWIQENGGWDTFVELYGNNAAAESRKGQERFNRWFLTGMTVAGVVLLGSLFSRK

| Structure (SMILES) | Ki (Bcl-xL) | pKi (Bcl-xL) | pEC50 ([1]; Homo sapiens, MOLT-4, 4 h) | EC50 ([2]; Homo sapiens, MOLT-4, 48 h) | pEC50 [1] | EC50 [2] |
| --- | --- | --- | --- | --- | --- | --- |
| Cc1c(-c2ccc(N3CCc4cccc(C(=O)Nc5nc6ccccc6s5)c4C3)nc2C(=O)O)cnn1CC12CC3(C)CC(C)(C1)CC(OCCNCCS(=O)(=O)O)(C3)C2 [Example 1.2, 6-[8-(1,3-benzothiazol-2-ylcarbamoyl)-3,4-dihydroisoquinolin-2 (1H)-yl]-3-(1-[(3,5-dimethyl-7-{12-[(2-sulfoethyl)amino]ethoxy}tricyclo[3.3.1.1^3,7]dec-1-yl)methyl]-5-methyl-1H-pyrazol-4-yl}pyridine-2-carboxylic acid] | 0.16 nM | > 12.00 | > 9.30 | – | – | – |
| Cc1c(-c2ccc(N3CCc4cccc(C(=O)Nc5nc6ccccc6s5)c4C3)nc2C(=O)O)cnn1CC12CC3(C)CC(C)(C1)CC(OCCNCCCS(=O)(=O)O)(C3)C2 [Example 1.5, 6-[8-(1,3-benzothiazol-2-ylcarbamoyl)-3,4-dihydroisoquinolin-2 (1H)-yl]-3-{1-[(3,5-dimethyl-7-{2-[(3-sulfopropyl)amino]ethoxy}tricyclo[3.3.1.1^3,7]dec-1-yl)methyl]-5-methyl-1H-pyrazol-4-yl}pyridine-2-carboxylic acid] | 0.26 nM | 10.72 | 9.00 to 9.30 | 189 nM | – | – |
| Cc1c(-c2ccc(N3CCc4cccc(C(=O)Nc5nc6ccccc6s5)c4C3)nc2C(=O)O)cnn1CC12CC3(C)CC(C)(C1)CC(OCCOCCNCc1ccc(O[C@@H]4O[C@H](CO)[C@@H](O)[C@@H](O)[C@H]4O)cc1)(C3)C2 [Example 1.10, 3-[1-({3-[2-(2-{[4-(beta-D-allopyranosyloxy)benzyl]amino}ethoxy)ethoxy]-5,7-dimethyltricyclo[3.3.1.1^3,7]dec-1-yl}methyl)-5-methyl-1H-pyrazol-4-yl]-6-[8-(1,3-benzothiazol-2-ylcarbamoyl)-3,4-dihydroisoquinolin-2 (1H)-yl]pyridine-2-carboxylic acid] | 0.027 nM | > 12.00 | > 9.30 | 74 nM | – | – |
| Cc1c(-c2ccc(N3CCc4cccc(C(=O)Nc5nc6ccccc6s5)c4C3)nc2C(=O)O)cnn1CC12CC3(C)CC(C)(C1)CC(OCCOCCNCCS(=O)(=O)O)(C3)C2 [Example 1.11, 6-[8-(1,3-benzothiazol-2-ylcarbamoyl)-3,4-dihydroisoquinolin-2 (1H)-yl]-3-(1-{[3,5-dimethyl-7-(2-{2-[(2-sulfoethyl)amino]ethoxy}ethoxy)tricyclo[3.3.1.1^3,7]dec-1-yl]methyl}-5-methyl-1H-pyrazol-4-yl}pyridine-2-carboxylic acid] | 0.17 nM | > 12.00 | > 9.30 | 63 nM | – | – |
| Cc1c(-c2ccc(N3CCc4cccc(C(=O)Nc5nc6ccccc6s5)c4C3)nc2C(=O)O)cnn1CC12CC3(C)CC(C)(C1)CC(OCCNCCP(=O)(O)O)(C3)C2 [Example 1.12, 6-[8-(1,3-benzothiazol-2-ylcarbamoyl)-3,4-dihydroisoquinolin-2 (1H)-yl]-3-{1-[(3,5-dimethyl-7-{2-[(2-phosphonoethyl)amino]ethoxy}tricyclo[3.3.1.1^3,7]dec-1-yl)methyl]-5-methyl-1H-pyrazol-4-yl}pyridine-2-carboxylic acid] | 0.08 nM | > 12.00 | > 9.30 | 389 nM | – | – |
| Cc1c(-c2ccc(N3CCc4cccc(C(=O)Nc5nc6ccccc6s5)c4C3)nc2C(=O)O)cnn1CC12CC3(C)CC(C)(C1)CC(OCCN(C)C(=O)[C@@H](N)CS(=O)(=O)O)(C3)C2 [Example 1.13, 6-[8-(1,3-benzothiazol-2-ylcarbamoyl)-3,4-dihydroisoquinolin-2 (1H)-yl]-3-{1-[(3,5-dimethyl-7-{2-[methyl(3-sulfo-L-alanyl)amino]ethoxy}tricyclo[3.3.1.1^3,7]dec-1-yl)methyl]-5-methyl-1H-pyrazol-4-yl}pyridine-2-carboxylic acid] | 0.2 nM | > 12.00 | > 9.30 | 257 nM | – | – |
| Cc1c(-c2ccc(N3CCc4cccc(C(=O)Nc5nc6ccccc6s5)c4C3)nc2C(=O)O)cnn1CC12CC3(C)CC(C)(C1)CC(OCCNCCCP(=O)(O)O)(C3)C2 [Example 1.14, 6-[8-(1,3-benzothiazol-2-ylcarbamoyl)-3,4-dihydroisoquinolin-2 (1H)-yl]-3-{1-[(3,5-dimethyl-7-{2-[(3-phosphonopropyl)amino]ethoxy)tricyclo[3.3.1.1^3,7]dec-1-yl)methyl]-5-methyl-1H-pyrazol-4-yl}pyridine-2-carboxylic acid] | 0.18 nM | > 12.00 | > 9.30 | 415 nM | – | – |
| Cc1c(-c2ccc(N3CCc4cccc(C(=O)Nc5nc6ccccc6s5)c4C3)nc2C(=O)O)cnn1CC12CC3(C)CC(C)(C1)CC(OCCNC(=O)[C@@H](N)CS(=O)(=O)O)(C3)C2 [Example 1.15, 6-[8-(1,3-benzothiazol-2-ylcarbamoyl)-3,4-dihydroisoquinolin-2 (1H)-yl]-3-{1-[(3,5-dimethyl-7-{2-[(3-sulfo-L-alanyl)amino]ethoxy}tricyclo[3.3.1.1^3,7]dec-1-yl)methyl]-5-methyl-1H-pyrazol-4-yl}pyridine-2-carboxylic acid] | 0.39 nM | 11.52 | 8.30 to 9.00 | 663 nM | – | – |

Second part, the molecule after the results:

| Ki (Bcl-xL) | pKi (Bcl-xL) | pEC50 ([1]; Homo sapiens, MOLT-4, 4 h) | EC50 ([2]; Homo sapiens, MOLT-4, 48 h) | pEC50 [1] | EC50 [2] | Structure (SMILES) |
| --- | --- | --- | --- | --- | --- | --- |
| 1.38 nM | > 12.00 | 8.30 to 9.00 | – | > 9.30 | 3330 nM | Cc1c(-c2ccc(N3CCc4cccc(C(=O)Nc5nc6ccccc6s5)c4C3)nc2C(=O)O)cnn1CC12CC3(C)CC(C)(C1)CC(OCCN(CCOCCOCCN)Cc1ccc(CC4O[C@H](C(=O)O)[C@@H](O)[C@H](O)[C@H]4O)cc1)(C3)C2 (stereo partly drawn) [Example 1.18, 6-{4-[({2-[2-(2-aminoethoxy)ethoxy]ethyl}[2-({3-[(4-{6-[8-(1,3-benzothiazol-2-ylcarbamoyl)-3,4-dihydroisoquinolin-2 (1H)-yl]-2-carboxypyridin-3-yl}-5-methyl-1H-pyrazol-1-yl)methyl]-5,7-dimethyltricyclo[3.3.1.1^3,7]dec-1-yl}oxy)ethyl]amino)methyl]benzyl}-2,6-anhydro-L-gulonic acid] |
| – | – | > 9.30 | 92 nM | – | – | Cc1c(-c2ccc(N3CCc4c(OCCNCCC(=O)O)ccc(C(=O)Nc5nc6ccccc6s5)c4C3)nc2C(=O)O)cnn1CC12CC3(C)CC(C)(C1)CC(OCCN(C)CCS(=O)(=O)O)(C3)C2 [Example 1.49, 6-[8-(1,3-benzothiazol-2-ylcarbamoyl)-5-{2-[(2-carboxyethyl)amino]ethoxy}-3,4-dihydroisoquinolin-2 (1H)-yl]-3-{1-[(3,5-dimethyl-7-{2-[methyl(2-sulfoethyl)amino]ethoxy}tricyclo[3.3.1.1^3,7]dec-1-yl)methyl]-5-methyl-1H-pyrazol-4-yl}pyridine-2-carboxylic acid] |
| 0.46 nM | 10.64 | – | 373 nM | – | – | Cc1c(-c2ccc(N3CCc4cccc(C(=O)Nc5nc6ccccc6s5)c4C3)nc2C(=O)O)cnn1CC12CC3(C)CC(C)(C1)CC(OCCNC[C@H](O)[C@H](O)[C@@H](O)[C@H](O)[C@H](O)CO)(C3)C2 [Example 1.82] |
| 0.66 nM | 10.51 | – | 178 nM | – | – | Cc1c(-c2ccc(N3CCc4cccc(C(=O)Nc5nc6ccccc6s5)c4C3)nc2C(=O)O)cnn1CC12CC3(C)CC(C)(C1)CC(OCCNS(=O)(=O)CCCNC(CO)CO)(C3)C2 [Example 1.83] |
| 1.2 nM | 10.16 | – | 259 nM | – | – | Cc1c(-c2ccc(N3CCc4cccc(C(=O)Nc5nc6ccccc6s5)c4C3)nc2C(=O)O)cnn1CC12CC3(C)CC(C)(C1)CC(OCCNCCC(=O)NC(CO)(CO)CO)(C3)C2 [Example 1.84, 6-[8-(1,3-benzothiazol-2-ylcarbamoyl)-3,4-dihydroisoquinolin-2 (1H)-yl]-3-{1-[(3-{2-[(3-{[1,3-dihydroxy-2-(hydroxymethyl)propan-2-yl]amino}-3-oxopropyl)amino]ethoxy}-5,7-dimethyltricyclo[3.3.1.1^3,7]dec-1-yl)methyl]-5-methyl-1H-pyrazol-4-yl}pyridine-2-carboxylic acid] |
